Values of other authors in patent publication US6488942B1, “Disinfecting agent” (DDG Dental Devices GmbH, priority 1997, dated 2002).

## CC(=O)O.CC(=O)O.NC(=N\CCCCCC/N=C(N)/N=C(\N)Nc1ccc(Cl)cc1)/N=C(\N)Nc1ccc(Cl)cc1 [diacetate, Chlorhexidine diacetate]
  solubility in water: soluble in water
